Target: human recombinant ATX (Homo sapiens, UniProt Q13822)
Assay: Autotaxin (ATX) activity Quanta Red assay
Type: biochemical
Settings: Table 2: additional compounds tested for ATX activity (Quanta Red Assay); read-out: Activity
Summary of the method: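 Recombinant human ATX reaction stopped after 2 h with Quanta Red stop solution; fluorescence read at […]. Controls with DMSO, with and without ATX; IC50 in duplicate.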

| IC50 [µM] | SMILES |
| --- | --- |
| 0.154 | COc1ccc(Cn2c(CCC(=O)NCCc3ccc(SC)cc3)nc3cccnc32)cc1 [Example 221, 3-[3-(4-Methoxy-benzyl)-3H-imidazo[4,5-b]pyridin-2-yl]-N-[2-(4-methylsulfanyl-phenyl)-ethyl]-propionamide] |
| 8.81 | CCCCNC(=O)CCc1nc2cccnc2n1Cc1ccccc1 [Example 228, 3-(3-Benzyl-3H-imidazo[4,5-b]pyridin-2-yl)-N-butyl-propionamide] |

Same assay, conditions: Table 3: commercially available compounds tested for Autotaxin activity (Quanta Red assay); read-out: Activity

| IC50 [µM] | SMILES |
| --- | --- |
| 0.227 | COc1ccc(Cn2c(CCC(=O)NCCc3ccccc3)nc3cccnc32)cc1 [Example 237, 3-[3-(4-Methoxy-benzyl)-3H-imidazo[4,5-b]pyridin-2-yl]-N-phenethyl-propionamide, reference compound] |

Same assay, conditions: human recombinant ATX 0.8 μg/mL, 2 hours at room temperature, IC50 determined in duplicate; read-out: Activity (ATX activity, Quanta Red assay; IC50)

| SMILES | IC50 [µM] |
| --- | --- |
| C[C@H](NC(=O)CSc1nc2cccnc2n1Cc1ccc(OC(F)(F)F)cc1)c1ccc(F)cc1 [Example 145, N—[(S)-1-(4-fluoro-phenyl)-ethyl]-2-[3-(4-trifluoromethoxy-benzyl)-3H-imidazo[4,5-b]pyridin-2-ylsulfanyl]-acetamide] | 0.002 |
| C[C@H](NC(=O)CCc1nc2ccncc2n1Cc1ccc(OC(F)(F)F)cc1)c1ccc(Cl)cc1 [Example 122, N—[(S)-1-(4-chloro-phenyl)-ethyl]-3-[3-(4-trifluoromethoxy-benzyl)-3H-imidazo[4,5-c]pyridin-2-yl]-propionamide] | 0.003 |
| C[C@H](NC(=O)CCc1nc2ccncc2n1Cc1ccc(OC(F)(F)F)cc1)c1ccc(F)cc1 [Example 124, N-[(S)-1-(4-Fluoro-phenyl)-ethyl]-3-[3-(4-trifluoromethoxy-benzyl)-3H-imidazo[4,5-c]pyridin-2-yl]-propionamide] | 0.008 |
| C[C@H](NC(=O)CCc1nc2cccnc2n1Cc1ccc(C(F)(F)F)cc1)c1ccc(Cl)cc1 [Example 12, N-[(S)-1-(4-Chloro-phenyl)-ethyl]-3-[3-(4-trifluoromethyl-benzyl)-3H-imidazo[4,5-b]pyridin-2-yl]-propionamide] | 0.002 |

Same assay, conditions: read-out: Activity (ATX activity, Quanta Red assay; IC50)

| IC50 [µM] | SMILES |
| --- | --- |
| 0.009 | COc1ccc(Cn2c(CCC(=O)N[C@@H](C)c3ccc(C)cc3)nc3cccnc32)cc1 [Example 90, 3-[3-(4-Methoxy-benzyl)-3H-imidazo[4,5-b]pyridin-2-yl]-N-((S)-1-p-tolyl-ethyl)-propionamide] |
| 0.052 | O=C(CCc1nc2ccncc2n1Cc1ccc(OC(F)(F)F)cc1)NCc1ccc(F)cc1 [Example 133, N-(4-Fluoro-benzyl)-3-[3-(4-trifluoromethoxy-benzyl)-3H-imidazo[4,5-c]pyridin-2-yl]-propionamide] |
| 0.04 | COc1ccc(CNC(=O)CCc2nc3cccnc3n2Cc2ccc(F)cc2)cc1 [Example 97, 3-[3-(4-Fluoro-benzyl)-3H-imidazo[4,5-b]pyridin-2-yl]-N-(4-methoxy-benzyl)-propionamide] |
| 0.011 | O=C(CCc1nc2ccncc2n1Cc1ccc(OC(F)(F)F)cc1)NC(CO)c1ccc(OC(F)(F)F)cc1 (stereo not shown) [Example 126, N-[2-Hydroxy-1-(4-trifluoromethoxy-phenyl)-ethyl]-3-[3-(4-trifluoromethoxy-benzyl)-3H-imidazo[4,5-c]pyridin-2-yl]-propionamide] |
| 0.267 | O=C(CCc1nc2cccnc2n1Cc1ccc(OC(F)(F)F)cc1)Nc1nncs1 [Example 73, N-[1,3,4]Thiadiazol-2-yl-3-[3-(4-trifluoromethoxy-benzyl)-3H-imidazo[4,5-b]pyridin-2-yl]-propionamide] |
| 0.058 | O=C(CCc1nc2cccnc2n1Cc1ccc(F)c(F)c1)NCc1ccc(OC(F)(F)F)cc1 [Example 57, 3-[3-(3,4-Difluoro-benzyl)-3H-imidazo[4,5-b]pyridin-2-yl]-N-(4-trifluoromethoxy-benzyl)-propionamide] |
| 0.015 | CC[C@H](NC(=O)CCc1nc2cccnc2n1Cc1ccc(OC)cc1)c1ccccc1 [Example 93, 3-[3-(4-Methoxy-benzyl)-3H-imidazo[4,5-b]pyridin-2-yl]-N-((S)-1-phenyl-propyl)-propionamide] |
| 0.003 | O=C(CCc1nc2cccnc2n1Cc1ccc(OC(F)(F)F)cc1)NC(CO)c1ccc(OC(F)(F)F)cc1 (stereo not shown) [Example 20, N-[2-Hydroxy-1-(4-trifluoromethoxy-phenyl)-ethyl]-3-[3-(4-trifluoromethoxy-benzyl)-3H-imidazo[4,5-b]pyridin-2-yl]-propionamide] |
| 0.001 | O=C(CSc1nc2cccnc2n1Cc1ccc(F)cc1)N[C@@H](CO)c1ccccc1 [Example 143, 2-[3-(4-Fluoro-benzyl)-3H-imidazo[4,5-b]pyridin-2-ylsulfanyl]-N-((R)-2-hydroxy-1-phenyl-ethyl)-acetamide] |
| 0.026 | C[C@H](NC(=O)CCc1nc2cccnc2n1Cc1ccc(F)c(F)c1)c1ccc(F)cc1 [Example 95, 3-[3-(3,4-Difluoro-benzyl)-3H-imidazo[4,5-b]pyridin-2-yl]-N-[(S)-1-(4-fluoro-phenyl)-ethyl]-propionamide] |
| 1.48 | Cc1cnc(NC(=O)CCc2nc3cccnc3n2Cc2ccc(OC(F)(F)F)cc2)s1 [Example 81, N-(5-Methyl-thiazol-2-yl)-3-[3-(4-trifluoromethoxy-benzyl)-3H-imidazo[4,5-b]pyridin-2-yl]-propionamide] |
| 0.025 | O=C(CCc1nc2cccnc2n1Cc1ccc(F)cc1)NCc1ccc(F)cc1 [Example 94, N-(4-Fluoro-benzyl)-3-[3-(4-fluoro-benzyl)-3H-imidazo[4,5-b]pyridin-2-yl]-propionamide] |
| 0.003 | C[C@H](NC(=O)CCc1nc2cccnc2n1Cc1ccc(OC(F)(F)F)cc1)c1ccc(N2CCN[C@@H](C)C2)cc1 [Example 176, N-{(S)-1-[4-((S)-3-Methyl-piperazin-1-yl)-phenyl]-ethyl}-3-[3-(4-trifluoromethoxy-benzyl)-3H-imidazo[4,5-b]pyridin-2-yl]-propionamide] |
| 0.003 | O=C(CCc1nc2cccnc2n1Cc1ccc(OC(F)(F)F)cc1)N[C@@H](CS)c1ccccc1 [Example 209, N—((R)-2-mercapto-1-phenyl-ethyl)-3-[3-(4-trifluoromethoxy-benzyl)-3H-imidazo[4,5-b]pyridin-2-yl]-propionamide] |
| 0.021 | C[C@@H](NC(=O)CCc1nc2cccnc2n1Cc1ccc(OC(F)(F)F)cc1)c1ccc(Cl)cc1 [Example 49, N-[(R)-1-(4-Chloro-phenyl)-ethyl]-3-[3-(4-trifluoromethoxy-benzyl)-3H-imidazo[4,5-b]pyridin-2-yl]-propionamide] |
| 0.262 | COc1ccc(CNC(=O)CCc2nc3cccnc3n2Cc2cccc(F)c2)cc1 [Example 110, 3-[3-(3-Fluoro-benzyl)-3H-imidazo[4,5-b]pyridin-2-yl]-N-(4-methoxy-benzyl)-propionamide] |
| 0.019 | O=C(CCc1nc2cccnc2n1Cc1ccc(F)cc1)NC(CO)c1ccc(F)cc1 (stereo not shown) [Example 47, 3-[3-(4-Fluoro-benzyl)-3H-imidazo[4,5-b]pyridin-2-yl]-N-[1-(4-fluoro-phenyl)-2-hydroxy-ethyl]-propionamide] |
| 0.042 | COc1ccc([C@H](C)NC(=O)NCc2nc3cccnc3n2Cc2ccc(F)cc2)cc1 [Example 159, 1-[3-(4-Fluoro-benzyl)-3H-imidazo[4,5-b]pyridin-2-ylmethyl]-3-[(S)-1-(4-methoxy-phenyl)-ethyl]-urea] |
| 0.115 | C[C@H](NC(=O)NCc1nc2cccnc2n1Cc1ccc(F)cc1)c1ccccc1 [Example 161, 1-[3-(4-fluoro-benzyl)-3H-imidazo[4,5-b]pyridin-2-ylmethyl]-3-((S)-1-phenyl-ethyl)-urea] |
| 0.014 | CC[C@H](NC(=O)CCc1nc2ccncc2n1Cc1ccc(F)cc1)c1ccccc1 [Example 127, 3-[3-(4-Fluoro-benzyl)-3H-imidazo[4,5-c]pyridin-2-yl]-N-((S)-1-phenyl-propyl)-propionamide] |
| 0.009 | C[C@H](NC(=O)CCc1nc2ccncc2n1Cc1ccc(OC(F)(F)F)cc1)c1ccc(N2CCN(C)CC2)cc1 [Example 125, N-{(S)-1-[4-(4-Methyl-piperazin-1-yl)-phenyl]-ethyl}-3-[3-(4-trifluoromethoxy-benzyl)-3H-imidazo[4,5-c]pyridin-2-yl]-propionamide] |
| 0.209 | O=C(NCc1nc2cccnc2n1Cc1ccc(F)c(F)c1)N[C@@H](CO)c1ccccc1 [Example 162, 1-[3-(3,4-difluoro-benzyl)-3H-imidazo[4,5-b]pyridin-2-ylmethyl]-3-((R)-2-hydroxy-1-phenyl-ethyl)-urea] |
| 0.005 | O=C(CCc1nc2cccnc2n1Cc1ccc(OC(F)(F)F)cc1)NCc1ccc(F)cc1 [Example 30, N-(4-Fluoro-benzyl)-3-[3-(4-trifluoromethoxy-benzyl)-3H-imidazo[4,5-b]pyridin-2-yl]-propionamide] |
| 0.5 | C[C@H](NC(=O)CCc1nc2cccnc2n1Cc1ccc(OCc2ccccc2)cc1)c1ccc(Cl)cc1 [Example 76, 3-[3-(4-Benzyloxy-benzyl)-3H-imidazo[4,5-b]pyridin-2-yl]-N-[(S)-1-(4-chloro-phenyl)-ethyl]-propionamide] |
| 0.002 | O=C(CCc1nc2cccnc2n1Cc1ccc(OC(F)(F)F)cc1)N[C@@H](CO)Cc1ccccc1 [Example 203, N—((R)-1-Hydroxymethyl-2-phenyl-ethyl)-3-[3-(4-trifluoromethoxy-benzyl)-3H-imidazo[4,5-b]pyridin-2-yl]-propionamide] |
| 0.002 | C[C@H](NC(=O)CCc1nc2cccnc2n1Cc1ccc(OC(F)(F)F)cc1)c1ccc(F)cc1 [Example 13, N-[(S)-1-(4-Fluoro-phenyl)-ethyl]-3-[3-(4-trifluoromethoxy-benzyl)-3H-imidazo[4,5-b]pyridin-2-yl]-propionamide] |
| 0.002 | O=C(CCc1nc2cccnc2n1Cc1ccc(C(F)(F)F)cc1)N[C@H](Cc1ccccc1)C(=O)O [Example 196, (R)-3-Phenyl-2-{3-[3-(4-trifluoromethyl-benzyl)-3H-imidazo[4,5-b]pyridin-2-yl]-propionylamino}-propionic acid] |

Reference: patent publication US11453666B2, “Autotaxin inhibitory compounds” (Cancer Research Technology Limited, priority 2015, dated 2022)
